From the supplement of paper PMC5908809

Legend:
[1] = test system: normal NK cells expanded with K562-aAPC; assay: drug sensitivity score (DSS) (DSS units); higher = more sensitive; extreme values may be limits of the assay; conditions: 72 h; IL-2 2.5 ng/mL
Experimental: (§1)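 Drug sensitivity and resistance testing on K562-aAPC-expanded normal NK cells: 5 concentrations (10-fold steps over a 10,000-fold range), 72 h at 37 °C, viability by CellTiter-Glo normalised to DMSO and benzethonium chloride controls; DSS from the fitted curve.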

KHYG-1 (IL-2 2.5 ng/mL) [2] = assay: as above; conditions: 72 h
[3] = test system: normal primary NK cells, pool 1 (3 donors), resting (IL-2 0 ng/mL); assay: as above; conditions: 72 h
[4] = test system: normal primary NK cells, pool 1 (3 donors) (IL-2 2.5 ng/mL); assay: as above; conditions: 72 h
[5] = test system: normal primary NK cells, pool 2 (3 donors) (IL-2 2.5 ng/mL); assay: as above; conditions: 72 h
[6] = test system: normal primary NK cells, pool 3 (3 donors) (IL-2 2.5 ng/mL); assay: as above; conditions: 72 h
NK-YS (IL-2 2.5 ng/mL) [7] = assay: as above; conditions: 72 h
KAI3 (IL-2 2.5 ng/mL) [8] = assay: as above; conditions: 72 h
YT (IL-2 2.5 ng/mL) [9] = assay: as above; conditions: 72 h
IMC-1 (IL-2 20 ng/mL) [10] = assay: as above; conditions: 72 h
SNK-6 (IL-2 2.5 ng/mL) [11] = assay: as above; conditions: 72 h
NK-92 (IL-2 2.5 ng/mL) [12] = assay: as above; conditions: 72 h
DERL-7 (IL-2 2.5 ng/mL) [13] = assay: as above; conditions: 72 h
NKL (IL-2 2.5 ng/mL) [14] = assay: as above; conditions: 72 h
[15] = test system: normal NK cells expanded with K562-aAPC; assay: percent inhibition of viability; higher = more inhibition; conditions: 72 h, IL-2 2.5 ng/mL
Experimental: as §1

KHYG-1 (IL-2 2.5 ng/mL) [16] = assay: as above; conditions: 72 h
[17] = test system: normal primary NK cells, pool 1 (3 donors), resting (IL-2 0 ng/mL); assay: as above; conditions: 72 h
[18] = test system: normal primary NK cells, pool 1 (3 donors) (IL-2 2.5 ng/mL); assay: as above; conditions: 72 h
[19] = test system: normal primary NK cells, pool 2 (3 donors) (IL-2 2.5 ng/mL); assay: as above; conditions: 72 h
[20] = test system: normal primary NK cells, pool 3 (3 donors) (IL-2 2.5 ng/mL); assay: as above; conditions: 72 h
NK-YS (IL-2 2.5 ng/mL) [21] = assay: as above; conditions: 72 h
KAI3 (IL-2 2.5 ng/mL) [22] = assay: as above; conditions: 72 h
YT (IL-2 2.5 ng/mL) [23] = assay: as above; conditions: 72 h
IMC-1 (IL-2 20 ng/mL) [24] = assay: as above; conditions: 72 h
SNK-6 (IL-2 2.5 ng/mL) [25] = assay: as above; conditions: 72 h
NK-92 (IL-2 2.5 ng/mL) [26] = assay: as above; conditions: 72 h
DERL-7 (IL-2 2.5 ng/mL) [27] = assay: as above; conditions: 72 h
NKL (IL-2 2.5 ng/mL) [28] = assay: as above; conditions: 72 h

Nc1ccn([C@@H]2O[C@H](CO)[C@@H](O)[C@@H]2O)c(=O)n1 [Cytarabine] (max concentration tested 10000 nM)
Conditions	drug sensitivity score
DERL-7 (IL-2 2.5 ng/mL) [13]	31.5
IMC-1 (IL-2 20 ng/mL) [10]	25
KAI3 (IL-2 2.5 ng/mL) [8]	26.2
KHYG-1 (IL-2 2.5 ng/mL) [2]	30.8
NK-92 (IL-2 2.5 ng/mL) [12]	23.6
NK-YS (IL-2 2.5 ng/mL) [7]	16
NKL (IL-2 2.5 ng/mL) [14]	24.4
SNK-6 (IL-2 2.5 ng/mL) [11]	19.1
YT (IL-2 2.5 ng/mL) [9]	3.34
[1]	19
[3]	8.4
[4]	7.89
[5]	6.63
[6]	5.19

percent inhibition of viability [%]
Conditions	1 nM	10 nM	100 nM	1000 nM	10000 nM
DERL-7 (IL-2 2.5 ng/mL) [27]	-3.03	23.2	88.8	98.1	99.7
IMC-1 (IL-2 20 ng/mL) [24]	-2.71	-1.64	59.5	98.2	99.6
KAI3 (IL-2 2.5 ng/mL) [22]	-13.4	12.5	67.4	95.8	95.5
KHYG-1 (IL-2 2.5 ng/mL) [16]	-3.64	17.1	88.3	105	102
NK-92 (IL-2 2.5 ng/mL) [26]	0.96	0.98	50.8	95.5	97.8
NK-YS (IL-2 2.5 ng/mL) [21]	-6.32	-1.48	14	77.5	92.9
NKL (IL-2 2.5 ng/mL) [28]	-6.71	6.58	60.2	94.3	93.6
SNK-6 (IL-2 2.5 ng/mL) [25]	18.7	4.98	31.7	83.1	97.5
YT (IL-2 2.5 ng/mL) [23]	-3.82	0.15	-0.65	19.1	28.4
[15]	0.23	-1.23	28.7	84.4	98.9
[17]	-11.7	-15.1	-18.8	29.4	78.7
[18]	-4.48	-4.56	-4.83	23	80.4
[19]	-14.2	-13.4	-1.98	13.2	79.9
[20]	-11.3	-7.93	-9.4	7.11	73.2

CN(C)C1CCN(C(=O)c2ccc(NC(=O)Nc3ccc(-c4nc(N5CCOCC5)nc(N5CCOCC5)n4)cc3)cc2)CC1 [Gedatolisib] (max concentration tested 1000 nM)
Conditions	drug sensitivity score
DERL-7 (IL-2 2.5 ng/mL) [13]	17.5
IMC-1 (IL-2 20 ng/mL) [10]	1.45
KAI3 (IL-2 2.5 ng/mL) [8]	7.65
KHYG-1 (IL-2 2.5 ng/mL) [2]	2.77
NK-92 (IL-2 2.5 ng/mL) [12]	0.11
NK-YS (IL-2 2.5 ng/mL) [7]	12.7
NKL (IL-2 2.5 ng/mL) [14]	13.9
SNK-6 (IL-2 2.5 ng/mL) [11]	6.43
YT (IL-2 2.5 ng/mL) [9]	5.75
[1]	3.49
[3]	0.01
[4]	1.34
[5]	2.68
[6]	1.15

percent inhibition of viability [%]
Conditions	0.1 nM	1 nM	10 nM	100 nM	1000 nM
DERL-7 (IL-2 2.5 ng/mL) [27]	-6.47	3.75	20.5	81.6	96.8
IMC-1 (IL-2 20 ng/mL) [24]	1.19	4.03	-1.18	-2.3	34.8
KAI3 (IL-2 2.5 ng/mL) [22]	-4.82	-2.02	7.1	34.4	65.2
KHYG-1 (IL-2 2.5 ng/mL) [16]	3.45	0.68	6.16	4.39	40.9
NK-92 (IL-2 2.5 ng/mL) [26]	-8.45	-9.3	7.7	-10.2	15.7
NK-YS (IL-2 2.5 ng/mL) [21]	1.81	-3.05	18.4	56.5	75.3
NKL (IL-2 2.5 ng/mL) [28]	-11	-10.7	19.5	58.6	62
SNK-6 (IL-2 2.5 ng/mL) [25]	13	9.94	17.4	15.5	55.6
YT (IL-2 2.5 ng/mL) [23]	-1.35	-2.24	7.23	19.8	61.7
[15]	-0.13	7.4	1.57	11	38
[17]	4.88	-18.3	3.45	-12.4	12.5
[18]	4.43	-5.19	5.53	2.83	24.4
[19]	-16.6	-2.18	-0.9	7.29	33.2
[20]	-10.1	-4.3	-0.54	0.15	27.5

COc1cccc2c1C(=O)c1c(O)c3c(c(O)c1C2=O)C[C@@](O)(C(=O)CO)C[C@@H]3O[C@H]1C[C@H](N)[C@H](O)[C@H](C)O1 [Doxorubicin] (max concentration tested 1000 nM)
Conditions	drug sensitivity score
DERL-7 (IL-2 2.5 ng/mL) [13]	17.4
IMC-1 (IL-2 20 ng/mL) [10]	16
KAI3 (IL-2 2.5 ng/mL) [8]	16.2
KHYG-1 (IL-2 2.5 ng/mL) [2]	14.6
NK-92 (IL-2 2.5 ng/mL) [12]	12.8
NK-YS (IL-2 2.5 ng/mL) [7]	17.1
NKL (IL-2 2.5 ng/mL) [14]	28.7
SNK-6 (IL-2 2.5 ng/mL) [11]	15.5
YT (IL-2 2.5 ng/mL) [9]	13.3
[1]	10.8
[3]	13.3
[4]	10.3
[5]	10.2
[6]	8.97

percent inhibition of viability [%]
Conditions	0.1 nM	1 nM	10 nM	100 nM	1000 nM
DERL-7 (IL-2 2.5 ng/mL) [27]	-0.26	-4.85	13.4	85.9	100
IMC-1 (IL-2 20 ng/mL) [24]	-7.6	-2.62	-0.06	88.2	99.8
KAI3 (IL-2 2.5 ng/mL) [22]	-17.1	-0.05	19.4	74.9	89.1
KHYG-1 (IL-2 2.5 ng/mL) [16]	-8.45	-6.72	-0.27	79.3	98.3
NK-92 (IL-2 2.5 ng/mL) [26]	-8.55	11.3	-2.45	64.2	96.6
NK-YS (IL-2 2.5 ng/mL) [21]	-8.43	-6.33	14.6	83.5	95.3
NKL (IL-2 2.5 ng/mL) [28]	-17.6	-0.29	89.2	102	97.3
SNK-6 (IL-2 2.5 ng/mL) [25]	20	14.8	5.01	80.6	94.3
YT (IL-2 2.5 ng/mL) [23]	-4.73	-5.55	-0.81	69.3	97.2
[15]	-3.12	-5.25	-1.72	39.8	99.8
[17]	-18	-16.6	1.78	70.1	92.1
[18]	-9.2	-4.36	4.47	40.8	96.5
[19]	-14	-6.82	-8.6	37.2	94.4
[20]	-4.57	-14.4	-9.04	23.1	97.2

FC(F)c1nc2ccccc2n1-c1nc(N2CCOCC2)nc(N2CCOCC2)n1 [ZSTK474] (max concentration tested 10000 nM)
Conditions	drug sensitivity score
DERL-7 (IL-2 2.5 ng/mL) [13]	18.4
IMC-1 (IL-2 20 ng/mL) [10]	0
KAI3 (IL-2 2.5 ng/mL) [8]	9.53
KHYG-1 (IL-2 2.5 ng/mL) [2]	4.45
NK-92 (IL-2 2.5 ng/mL) [12]	16.9
NK-YS (IL-2 2.5 ng/mL) [7]	7.54
NKL (IL-2 2.5 ng/mL) [14]	11
SNK-6 (IL-2 2.5 ng/mL) [11]	7.51
YT (IL-2 2.5 ng/mL) [9]	9
[1]	7.86
[3]	5.69
[4]	7.96
[5]	3.84
[6]	1.91

percent inhibition of viability [%]
Conditions	1 nM	10 nM	100 nM	1000 nM	10000 nM
DERL-7 (IL-2 2.5 ng/mL) [27]	6	10.9	36.5	75.4	81.7
IMC-1 (IL-2 20 ng/mL) [24]	0.84	-3.67	-9.08	-31.5	-20.7
KAI3 (IL-2 2.5 ng/mL) [22]	4.91	1.34	14.2	43.2	55.8
KHYG-1 (IL-2 2.5 ng/mL) [16]	1.03	-2.51	5.44	17.9	48
NK-92 (IL-2 2.5 ng/mL) [26]	1.13	13.1	45.6	48.8	57.2
NK-YS (IL-2 2.5 ng/mL) [21]	-6.13	-3.67	5.5	36	57.2
NKL (IL-2 2.5 ng/mL) [28]	-4.7	3.86	6.05	54.5	69.3
SNK-6 (IL-2 2.5 ng/mL) [25]	17.9	-3.78	-1.36	35.9	58.6
YT (IL-2 2.5 ng/mL) [23]	3.19	3.41	11.6	42.3	50.5
[15]	-8.61	1.11	12.5	35.9	49.6
[17]	-19.3	-14.1	10.2	27.2	41.5
[18]	-2.64	-1.27	20.4	31.6	32.4
[19]	-2.66	-3.09	1.26	20	34.2
[20]	-3.55	-8.03	-3.22	10.6	22
